Patent US12227500B2, “Substituted pyrrolo[2,3-b]pyridines for suppressing toxic endoplasmic reticulum stress” (THE TRUSTEES OF COLUMBIA UNIVERSITY IN THE CITY OF NEW YORK, priority 2018, dated 2025)
Like-named read-outs stand apart in the source and are kept apart here.

How the values were obtained:
Type in all cases: biochemical
[1] = target: T1, panel of 60 human kinases (Homo sapiens, UniProt Q13164); assay: Radiolabeled ATP kinase assay, panel of 60 kinases (Table S5); settings: 0.1 μM, 10 μM ATP, read-out: % Enzyme Activity (relative to DSMO controls)
T1 construct: purchased Reaction Biology Corp
T1 sequence (Q13164 whole entry): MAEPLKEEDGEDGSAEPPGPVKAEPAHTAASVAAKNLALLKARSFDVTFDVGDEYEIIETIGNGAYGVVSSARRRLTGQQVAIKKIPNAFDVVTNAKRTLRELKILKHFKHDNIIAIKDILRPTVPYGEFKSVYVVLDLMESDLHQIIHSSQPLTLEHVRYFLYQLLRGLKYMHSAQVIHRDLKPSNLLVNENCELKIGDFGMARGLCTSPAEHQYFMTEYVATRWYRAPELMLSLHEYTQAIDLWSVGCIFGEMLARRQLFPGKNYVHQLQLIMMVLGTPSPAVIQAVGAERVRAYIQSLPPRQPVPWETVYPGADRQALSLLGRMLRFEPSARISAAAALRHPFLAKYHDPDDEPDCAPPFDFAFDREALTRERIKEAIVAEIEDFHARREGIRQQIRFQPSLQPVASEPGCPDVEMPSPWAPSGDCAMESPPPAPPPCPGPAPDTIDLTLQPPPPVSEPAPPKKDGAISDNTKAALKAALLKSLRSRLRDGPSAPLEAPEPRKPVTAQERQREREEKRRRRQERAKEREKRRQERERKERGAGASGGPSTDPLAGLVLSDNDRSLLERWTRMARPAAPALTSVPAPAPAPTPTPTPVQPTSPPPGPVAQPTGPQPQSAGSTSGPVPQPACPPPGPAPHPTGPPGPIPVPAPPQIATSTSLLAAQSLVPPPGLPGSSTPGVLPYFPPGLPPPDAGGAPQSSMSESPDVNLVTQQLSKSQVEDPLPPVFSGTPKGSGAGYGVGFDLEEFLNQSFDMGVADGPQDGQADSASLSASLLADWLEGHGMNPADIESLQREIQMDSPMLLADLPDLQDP
In short: (§1)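 Compounds at two concentrations, 0.1 μM and 0.5 μM, were screened for inhibition of 60 kinases in cell-free assays read out by radiolabeled ATP.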

[2] = target: T2, panel of 60 human kinases (Homo sapiens, UniProt Q9H2K8); assay: as above; settings: TAOK3/JIK; 0.1 μM; 10 μM ATP; read-out: % Enzyme Activity (relative to DSMO controls)
T2 construct: purchased Reaction Biology Corp
T2 sequence (Q9H2K8 1-898): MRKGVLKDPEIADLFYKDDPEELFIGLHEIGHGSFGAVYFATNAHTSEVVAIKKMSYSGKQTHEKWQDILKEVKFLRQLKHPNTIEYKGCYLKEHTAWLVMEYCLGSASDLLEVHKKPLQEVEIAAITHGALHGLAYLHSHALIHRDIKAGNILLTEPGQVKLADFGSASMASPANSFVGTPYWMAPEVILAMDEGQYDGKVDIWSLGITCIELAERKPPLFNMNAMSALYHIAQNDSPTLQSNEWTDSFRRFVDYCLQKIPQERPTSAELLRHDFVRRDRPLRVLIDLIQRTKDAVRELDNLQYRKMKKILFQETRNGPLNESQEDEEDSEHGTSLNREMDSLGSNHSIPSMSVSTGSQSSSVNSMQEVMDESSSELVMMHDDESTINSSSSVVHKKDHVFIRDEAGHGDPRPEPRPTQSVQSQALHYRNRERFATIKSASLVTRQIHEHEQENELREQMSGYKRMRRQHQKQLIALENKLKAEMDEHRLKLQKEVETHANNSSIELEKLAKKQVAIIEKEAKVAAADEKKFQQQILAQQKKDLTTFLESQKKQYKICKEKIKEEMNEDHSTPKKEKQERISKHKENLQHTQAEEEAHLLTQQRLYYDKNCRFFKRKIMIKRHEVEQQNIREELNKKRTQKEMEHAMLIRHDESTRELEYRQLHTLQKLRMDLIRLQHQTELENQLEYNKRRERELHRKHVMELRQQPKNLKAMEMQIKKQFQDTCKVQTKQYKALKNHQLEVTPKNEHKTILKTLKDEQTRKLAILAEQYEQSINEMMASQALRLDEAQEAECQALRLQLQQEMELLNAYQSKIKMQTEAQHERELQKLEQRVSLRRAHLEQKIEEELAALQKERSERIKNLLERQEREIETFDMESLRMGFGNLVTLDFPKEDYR
In short: as §1

[3] = target: T3, panel of 60 human kinases (Homo sapiens, UniProt P49759); assay: as above; settings: CLK1; 0.1 μM; 10 μM ATP; read-out: % Enzyme Activity (relative to DSMO controls)
T3 construct: purchased Reaction Biology Corp
T3 sequence (P49759 whole entry): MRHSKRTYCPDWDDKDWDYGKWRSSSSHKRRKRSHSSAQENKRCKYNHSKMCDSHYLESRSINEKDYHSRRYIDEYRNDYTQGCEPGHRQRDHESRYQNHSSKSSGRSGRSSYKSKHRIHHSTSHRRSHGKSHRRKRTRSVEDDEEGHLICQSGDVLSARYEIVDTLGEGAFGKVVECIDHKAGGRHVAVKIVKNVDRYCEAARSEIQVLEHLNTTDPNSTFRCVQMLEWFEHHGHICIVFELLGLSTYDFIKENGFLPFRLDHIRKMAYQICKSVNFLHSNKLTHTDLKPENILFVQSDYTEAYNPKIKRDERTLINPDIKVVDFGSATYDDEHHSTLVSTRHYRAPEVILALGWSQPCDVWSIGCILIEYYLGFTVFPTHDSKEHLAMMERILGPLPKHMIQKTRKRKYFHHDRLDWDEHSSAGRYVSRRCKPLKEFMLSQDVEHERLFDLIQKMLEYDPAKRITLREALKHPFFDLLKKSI
In short: as §1

[4] = target: T4, panel of 60 human kinases (Homo sapiens, UniProt Q00534); assay: as above; settings: 0.1 μM, 10 μM ATP, read-out: % Enzyme Activity (relative to DSMO controls)
T4 construct: purchased Reaction Biology Corp
T4 sequence (Q00534 whole entry): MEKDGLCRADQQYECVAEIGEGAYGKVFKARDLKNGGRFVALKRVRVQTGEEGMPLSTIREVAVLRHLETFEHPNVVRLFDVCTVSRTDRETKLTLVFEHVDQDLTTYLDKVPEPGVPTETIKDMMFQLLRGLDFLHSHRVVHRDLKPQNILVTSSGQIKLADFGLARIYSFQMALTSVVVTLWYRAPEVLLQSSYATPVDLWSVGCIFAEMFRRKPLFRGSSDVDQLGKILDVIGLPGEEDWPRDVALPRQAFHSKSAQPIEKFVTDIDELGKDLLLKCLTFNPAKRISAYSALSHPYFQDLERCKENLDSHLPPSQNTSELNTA
In short: as §1

[5] = target: T5, panel of 60 human kinases (Homo sapiens, UniProt Q15139); assay: as above; settings: PKCmu/PRKD1; 0.1 μM; 10 μM ATP; read-out: % Enzyme Activity (relative to DSMO controls)
T5 construct: purchased Reaction Biology Corp
T5 sequence (Q15139 1-912): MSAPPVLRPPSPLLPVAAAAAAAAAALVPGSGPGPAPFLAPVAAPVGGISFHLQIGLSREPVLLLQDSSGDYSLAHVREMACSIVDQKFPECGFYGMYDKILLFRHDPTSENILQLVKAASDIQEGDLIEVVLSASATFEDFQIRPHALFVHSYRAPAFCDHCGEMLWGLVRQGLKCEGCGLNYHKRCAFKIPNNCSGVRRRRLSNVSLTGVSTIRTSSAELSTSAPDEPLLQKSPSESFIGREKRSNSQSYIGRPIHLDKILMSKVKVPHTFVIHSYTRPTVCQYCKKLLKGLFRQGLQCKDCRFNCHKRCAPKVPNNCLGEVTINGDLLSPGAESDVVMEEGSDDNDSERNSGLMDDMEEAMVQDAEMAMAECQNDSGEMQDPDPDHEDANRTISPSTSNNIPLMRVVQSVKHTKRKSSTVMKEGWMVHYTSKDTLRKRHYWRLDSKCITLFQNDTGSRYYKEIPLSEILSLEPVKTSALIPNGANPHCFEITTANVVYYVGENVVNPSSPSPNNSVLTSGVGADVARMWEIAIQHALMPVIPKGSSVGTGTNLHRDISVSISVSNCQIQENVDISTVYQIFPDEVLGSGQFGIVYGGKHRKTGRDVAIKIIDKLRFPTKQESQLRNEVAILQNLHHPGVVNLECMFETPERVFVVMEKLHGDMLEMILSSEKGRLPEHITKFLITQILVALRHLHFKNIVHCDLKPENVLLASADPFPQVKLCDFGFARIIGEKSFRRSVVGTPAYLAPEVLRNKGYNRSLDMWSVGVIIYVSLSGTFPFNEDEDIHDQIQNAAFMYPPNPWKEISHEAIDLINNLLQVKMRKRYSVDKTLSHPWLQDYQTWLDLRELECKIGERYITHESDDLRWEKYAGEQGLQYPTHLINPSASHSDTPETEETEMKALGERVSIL
In short: as §1

[6] = target: T6, panel of 60 human kinases (Homo sapiens, UniProt P08581); assay: as above; settings: c-MET; 0.1 μM; 10 μM ATP; read-out: % Enzyme Activity (relative to DSMO controls)
T6 construct: purchased Reaction Biology Corp
In short: as §1

MLK1/MAP3K9 = target: T7, MLK1/MAP3K9 (Homo sapiens, UniProt P80192); assay: Radiolabeled ATP kinase assay (Reaction Biology Corp.), MLK1; settings: [Cmpd] 0.1 μM, 10 μM ATP
T7 construct: purchased Reaction Biology Corp
T7 sequence (P80192 whole entry): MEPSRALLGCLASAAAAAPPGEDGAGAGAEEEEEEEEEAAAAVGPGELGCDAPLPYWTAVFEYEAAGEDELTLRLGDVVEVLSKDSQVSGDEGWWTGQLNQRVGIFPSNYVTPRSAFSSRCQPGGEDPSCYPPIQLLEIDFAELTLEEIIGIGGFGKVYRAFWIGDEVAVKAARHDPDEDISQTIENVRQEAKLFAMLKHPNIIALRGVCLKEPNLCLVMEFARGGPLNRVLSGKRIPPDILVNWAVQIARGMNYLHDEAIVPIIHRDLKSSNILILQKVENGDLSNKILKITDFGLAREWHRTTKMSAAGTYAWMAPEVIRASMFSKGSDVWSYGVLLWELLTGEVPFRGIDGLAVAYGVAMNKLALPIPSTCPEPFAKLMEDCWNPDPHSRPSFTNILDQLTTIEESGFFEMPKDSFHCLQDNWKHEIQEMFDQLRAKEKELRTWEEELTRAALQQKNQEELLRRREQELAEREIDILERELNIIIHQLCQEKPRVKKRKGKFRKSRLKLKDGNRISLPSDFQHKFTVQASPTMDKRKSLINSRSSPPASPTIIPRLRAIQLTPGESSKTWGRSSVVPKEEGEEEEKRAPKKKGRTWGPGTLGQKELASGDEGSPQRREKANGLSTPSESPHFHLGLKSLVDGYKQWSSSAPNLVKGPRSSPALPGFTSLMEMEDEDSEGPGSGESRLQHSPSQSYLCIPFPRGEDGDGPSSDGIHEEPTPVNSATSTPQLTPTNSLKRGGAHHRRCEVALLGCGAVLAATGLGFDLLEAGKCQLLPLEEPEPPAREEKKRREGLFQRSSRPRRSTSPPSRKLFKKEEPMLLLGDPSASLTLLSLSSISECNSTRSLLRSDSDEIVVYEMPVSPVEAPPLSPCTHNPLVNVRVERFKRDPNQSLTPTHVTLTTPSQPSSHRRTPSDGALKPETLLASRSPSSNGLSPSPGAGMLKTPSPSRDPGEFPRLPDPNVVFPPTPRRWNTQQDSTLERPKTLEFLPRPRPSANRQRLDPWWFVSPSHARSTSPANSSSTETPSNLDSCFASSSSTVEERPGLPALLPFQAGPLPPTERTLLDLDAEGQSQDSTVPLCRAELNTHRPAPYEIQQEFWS
Protocol: (§2) Meanwhile, the same analogs were analyzed in a radiolabeled ATP assay (10 μM ATP; Reaction Biology Corp.) to compare the extent to which they could inhibit the activity of HGK, MLK1, or MLK3 in a cell-free environment (Table S3 and S4).

HGK/MAP4K4 = HGK/MAP4K4 (Homo sapiens, UniProt O95819); assay: Radiolabeled ATP kinase assay (Reaction Biology Corp.), HGK; design: purchased Reaction Biology Corp; settings: 10 μM ATP, read-out: % Enzyme Activity (relative to DMSO controls), HGK/MAP4K4, Data 1; for remaining activity at 0.025 µM: [Cmpd] 0.025 μM; for remaining activity at 0.1 µM: [Cmpd] 0.1 μM
Chain of HGK/MAP4K4 (O95819 whole entry): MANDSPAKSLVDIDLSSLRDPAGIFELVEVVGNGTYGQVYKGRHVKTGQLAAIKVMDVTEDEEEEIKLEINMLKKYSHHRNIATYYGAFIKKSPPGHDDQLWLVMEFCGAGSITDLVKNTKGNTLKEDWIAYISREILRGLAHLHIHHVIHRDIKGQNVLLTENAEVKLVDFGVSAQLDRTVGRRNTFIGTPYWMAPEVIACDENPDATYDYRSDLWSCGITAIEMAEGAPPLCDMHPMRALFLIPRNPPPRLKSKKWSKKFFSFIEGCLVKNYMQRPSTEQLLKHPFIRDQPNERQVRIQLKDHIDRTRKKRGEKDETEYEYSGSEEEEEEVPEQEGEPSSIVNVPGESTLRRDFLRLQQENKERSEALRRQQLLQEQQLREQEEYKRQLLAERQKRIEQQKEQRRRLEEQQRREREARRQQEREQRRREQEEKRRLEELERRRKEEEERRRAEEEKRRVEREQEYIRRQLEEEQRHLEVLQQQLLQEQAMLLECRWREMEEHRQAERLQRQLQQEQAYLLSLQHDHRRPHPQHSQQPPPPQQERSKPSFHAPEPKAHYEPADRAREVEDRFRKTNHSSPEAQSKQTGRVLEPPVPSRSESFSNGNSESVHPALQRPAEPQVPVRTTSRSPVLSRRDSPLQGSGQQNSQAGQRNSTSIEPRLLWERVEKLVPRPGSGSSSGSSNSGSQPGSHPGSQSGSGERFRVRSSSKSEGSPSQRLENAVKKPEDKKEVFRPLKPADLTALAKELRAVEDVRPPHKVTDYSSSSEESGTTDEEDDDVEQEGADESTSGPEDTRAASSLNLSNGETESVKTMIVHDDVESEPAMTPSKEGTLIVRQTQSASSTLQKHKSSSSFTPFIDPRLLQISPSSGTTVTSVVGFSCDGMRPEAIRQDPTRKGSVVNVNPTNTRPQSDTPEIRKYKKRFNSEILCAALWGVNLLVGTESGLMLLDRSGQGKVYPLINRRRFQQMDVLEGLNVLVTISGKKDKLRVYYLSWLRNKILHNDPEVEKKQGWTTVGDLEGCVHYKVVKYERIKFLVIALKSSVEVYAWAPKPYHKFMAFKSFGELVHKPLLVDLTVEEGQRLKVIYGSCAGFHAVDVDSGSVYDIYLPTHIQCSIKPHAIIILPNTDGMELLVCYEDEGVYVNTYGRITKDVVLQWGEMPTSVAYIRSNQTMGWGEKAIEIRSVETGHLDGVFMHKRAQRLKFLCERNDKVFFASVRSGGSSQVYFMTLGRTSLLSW
Protocol: as §2

[7] = read-out: % Enzyme Activity Remaining (relative to DMSO controls), MLK1/MAP3K9, Data 1
[8] = read-out: % Enzyme Activity Remaining (relative to DMSO controls), MLK1/MAP3K9, Data 2

Compound: CN1CCN(Cc2ccc(-c3cnc4[nH]cc(-c5ccc6[nH]ccc6c5)c4c3)cc2)CC1 [Compound 1, 3-(1H-Indol-5-yl)-5-(4-((4-methylpiperazin-1-yl)methyl)phenyl)-1H-pyrrolo[2,3-b]pyridine, reference compound]
- remaining activity at 0.1 µM ([1]; ERK5/MAPK7 (CD)): 87.5%
- remaining activity at 0.1 µM ([1]; ERK5/MAPK7): 109%
- remaining activity at 0.1 µM [2]: 84%
- remaining activity at 0.1 µM [3]: 33%
- remaining activity at 0.1 µM ([4]; CDK6/cyclin D1): 47.2%
- remaining activity at 0.1 µM ([4]; CDK6/cyclin D3): 66.1%
- remaining activity at 0.1 µM [5]: 11.4%
- remaining activity at 0.1 µM [6]: 55.9%
- remaining activity at 0.1 µM (MLK1/MAP3K9; [7]): 16.2%
- remaining activity at 0.1 µM (MLK1/MAP3K9; [8]): 14.2%
- remaining activity at 0.025 µM (HGK/MAP4K4): 18.5%
- remaining activity at 0.1 µM (HGK/MAP4K4): 5.23%

Compound: CN1CCN(Cc2ccc(-c3cnc4[nH]cc(-c5cccc(Cl)c5)c4c3)cc2)CC1 [Compound 7ad, 3-(3-Chlorophenyl)-5-(4-((4-methylpiperazin-1-yl)methyl)phenyl)-1H-pyrrolo[2,3-b]pyridine]
- remaining activity at 0.1 µM ([1]; ERK5/MAPK7 (CD)): 93.9%
- remaining activity at 0.1 µM ([1]; ERK5/MAPK7): 109%
- remaining activity at 0.1 µM [2]: 92%
- remaining activity at 0.1 µM [3]: 81.2%
- remaining activity at 0.1 µM ([4]; CDK6/cyclin D1): 45.8%
- remaining activity at 0.1 µM ([4]; CDK6/cyclin D3): 58.8%
- remaining activity at 0.1 µM [5]: 9.7%
- remaining activity at 0.1 µM [6]: 86.2%
- remaining activity at 0.1 µM (MLK1/MAP3K9; [7]): 61.9%
- remaining activity at 0.1 µM (MLK1/MAP3K9; [8]): 63.6%
- remaining activity at 0.025 µM (HGK/MAP4K4): 8.51%
- remaining activity at 0.1 µM (HGK/MAP4K4): 2.92%

Compound: CN1CCN(Cc2ccc(-c3cnc4[nH]cc(-c5cnn(Cc6ccccc6)c5)c4c3)cc2)CC1 [Compound 7ah, 3-(1-Benzyl-1H-pyrazol-4-yl)-5-(4-((4-methylpiperazin-1-yl)methyl)phenyl)-1H-pyrrolo[2,3-b]pyridine]
- remaining activity at 0.1 µM ([1]; ERK5/MAPK7 (CD)): 52.1%
- remaining activity at 0.1 µM ([1]; ERK5/MAPK7): 105%
- remaining activity at 0.1 µM [2]: 77.4%
- remaining activity at 0.1 µM [3]: 3.41%
- remaining activity at 0.1 µM ([4]; CDK6/cyclin D1): 28.6%
- remaining activity at 0.1 µM ([4]; CDK6/cyclin D3): 33.2%
- remaining activity at 0.1 µM [5]: 4.39%
- remaining activity at 0.1 µM [6]: 86.6%
- remaining activity at 0.1 µM (MLK1/MAP3K9; [7]): 51.1%
- remaining activity at 0.1 µM (MLK1/MAP3K9; [8]): 48.2%
- remaining activity at 0.025 µM (HGK/MAP4K4): 42.8%
- remaining activity at 0.1 µM (HGK/MAP4K4): 3.56%

Compound: Cc1nn(C)c(C)c1-c1c[nH]c2ncc(-c3ccc(CN4CCN(C)CC4)cc3)cc12 [Compound 7ai, 5-(4-((4-Methylpiperazin-1-yl)methyl)phenyl)-3-(1,3,5-trimethyl-1H-pyrazol-4-yl)-1H-pyrrolo[2,3-b]pyridine]
- remaining activity at 0.1 µM ([1]; ERK5/MAPK7 (CD)): 86%
- remaining activity at 0.1 µM ([1]; ERK5/MAPK7): 101%
- remaining activity at 0.1 µM [2]: 102%
- remaining activity at 0.1 µM [3]: 66.4%
- remaining activity at 0.1 µM ([4]; CDK6/cyclin D1): 47.9%
- remaining activity at 0.1 µM ([4]; CDK6/cyclin D3): 76%
- remaining activity at 0.1 µM [5]: 14.2%
- remaining activity at 0.1 µM [6]: 77.4%
- remaining activity at 0.1 µM (MLK1/MAP3K9; [7]): 93.3%
- remaining activity at 0.1 µM (MLK1/MAP3K9; [8]): 90.5%
- remaining activity at 0.025 µM (HGK/MAP4K4): 105%
- remaining activity at 0.1 µM (HGK/MAP4K4): 106%
